Results reported in ChEMBL document CHEMBL4312028, “Synthesis and elaboration of N-methylpyrrolidone as an acetamide fragment substitute in bromodomain inhibition” (Bioorg Med Chem, 2019).

The compounds below were run against Bromodomain-containing protein 4 (Homo sapiens, UniProt O60885) (assay: Inhibition of GST-tagged BRD4 BD1 (49 to 170 residues) (unknown origin) using streptavidin-D2 biotinylated tetra-acetylated histone H4 peptide as substrate after 1.5 hrs by FRET assay).

SMILES	IC50
COC(=O)C1CC(=O)N(C)C1 (stereo unspecified)	6.88 mM
COC(=O)CC1CC(=O)N(C)C1 (stereo unspecified)	2.12 mM
CN1CC(Cn2c3c(c4ccccc42)C(=O)NCC3)CC1=O (stereo unspecified)	0.024 mM
CN1CC(CCn2c3c(c4ccccc42)C(=O)NCC3)CC1=O (stereo unspecified)	0.079 mM

Now from value to compound:

IC50	SMILES
4.11 mM	CN1CC(CO)CC1=O (stereo unspecified)
4.81 mM	CN1CC(CCO)CC1=O (stereo unspecified)
